Laboratory results as given in US5602110A, “Method and composition for treating cystic fibrosis” (Case Western Reserve University, priority 1995, dated 1997).

Columns and labels:
[1] = test system: CF nasal polyp epithelial cells homozygous for the ΔF508 mutation; test: 36Cl chloride efflux assay in primary CF nasal polyp epithelial cells; format: cell-based, human; conditions: for chloride efflux rate increase (chloride transport) in the CF cells: primary CF nasal polyp cells, isoproterenol 10 μM, milrinone 100 μM or IBMX 100 μM as labelled
Method: A test was run to confirm that the chloride efflux in primary CF cells (as opposed to CF-T43 cells used above) is mediated by the cAMP-dependent, protein kinase A pathway and not by calcium-dependent chloride channels. Efflux assays were carried out on primary CF cells, being CF nasal polyp epithelial cells homozygous for the ΔF508 mutation. Any significant contribution of calcium-activated chloride channels was ruled out by incubating the cells in BAPTA-AM, and comparing the response induced by ionomycin to that of albuterol combined with milrinone.
Transformed cell lines often have altered properties relative to the tissues from which they were derived. To determine if the responses seen in the transformed CF-T43 cells were representative of primary tissue cells, primary epithelial cells from CF nasal polyps were assayed for chloride efflux. Tissues were obtained from nasal polypectomies of CF patients and epithelial cells were isolated by digesting cells from basement membrane by collagenase followed by low speed centrifugations. After counting viable cells, cells were plated and assayed in the same way as the CF-T43 cells. A total of 5 such experiments were performed with polyp cells from different, unrelated patients.
The effects of these compounds on chloride permeability were measured as the rate of ^36 Cl efflux after stimulation divided by the basal rate, given as rstim /rbas. […] Both CF types are homozygous for the ΔF508 mutation.

[2] = test system: CF-T43 cells (ΔF508 CFTR); test: 36Cl chloride efflux assay in CF-T43 cells; format: cell-based; conditions: for chloride efflux: agent(s) as labelled, no other drug, FIG. 1, FIG. 2; for effect of added agent on chloride efflux stimulated by isoproterenol and milrinone: added to milrinone and isoproterenol, FIG. 2; for chloride efflux rate increase (chloride transport) in the CF cells: CF-T43, isoproterenol 10 μM, milrinone 100 μM or IBMX 100 μM as labelled
Method: (§1) Two independent cell lines, Calu-3 and 16HBE, both derived from airway epithelial cells and both expressing normal CFTR (Shen et al., 1994; Haws et al., 1994; Haws et al., 1992) were assayed for increased Cl transport either by a radioisotopic flux assay or electrophysiologically. Using the method of Venglarik et al. (1990), cells were incubated in a Ringer's solution containing ^36 Cl to allow uptake of isotope into the cells, and then washed to remove external isotopic chloride. Efflux was measured by replacing the incubation solution every 30 seconds and quantitating the amount of ^36 Cl secreted into it. After 6 changes of solution (3 minutes), either drugs or placebos were added to the media. […] Efflux was then measured an additional 12 media changes (6 minutes).
CF-T43 is an SV40 T-antigen transformed cell line derived from a CF nasal turbinate (Jetten, et al., 1989). These cells maintain many of the original epithelial characteristics, including defective cAMP-dependant chloride transport, and have been used as a model for CF airway cells, CF-T43 cells carry and express only the ΔF508 CFTR mutation. […] With reference to FIG. 1, the control efflux contains Hepes-buffered Ringer's solution (HBR) +0.2% dimethylsulfoxide (DMSO), which is the concentration of DMSO in which the drugs were dissolved. The arrow indicates when the drugs were added. Iso means isoproterenol; Mil means milrinone.

[3] = test system: mutant CFTR in CF epithelial cells; conditions: Grubb et al. 1992; cited from earlier work
[4] = test system: Calu-3 and 16HBE airway epithelial cells expressing normal CFTR; test: 36Cl chloride efflux assay in airway epithelial cell lines expressing normal CFTR; format: cell-based; conditions: 100 μM each drug alone; Calu-3 and 16HBE cells
Method: The nomenclature for cyclic nucleotide phosphodiesterases, as follows, is taken from Beavo (1990).
as §1

[5] = test system: ΔF508 CFTR in Xenopus laevis oocytes; conditions: high concentrations of IBMX with relatively low concentrations of forskolin; cited from earlier work
[6] = test system: cellular cAMP in CF-T43 cells; conditions: in combination with isoproterenol 10 μM
normal CFTR in 293 cells = conditions: forskolin alone; normal type-transfected 293 cells
16HBE cells = test: Whole-cell voltage clamp; format: cell-based
Method: Whole-cell voltage clamp was used to confirm that the chloride efflux was consistent with CFTR activation. 16HBE cells were exposed to varying concentrations of milrinone and the membrane potential clamped in increments of 10 mV from -150 mV to +50 mV. The resulting current was then plotted as a function of voltage. […] A linear current/voltage relationship is a characteristic of CFTR activation. If currents are carried by chloride there should be a reduction in current at any given voltage when chloride is replaced by an ion to which CFTR is impermeante, such as gluconate.

[7] = 100 μM glibenclamide, CF-T43 cells

In the case of `CNCCNS(=O)(=O)c1cccc2cnccc12` [H-8, N[-2-(methylamino)ethyl]-5-isoquinoline sulfonamide], the “effect of preincubation on the isoproterenol/milrinone chloride efflux response” value ([1]; CF nasal polyp cells preincubated in H-8) was “dramatically reduced”.

In the case of `CC(C)Cn1c(=O)n(C)c(=O)c2[nH]cnc21` [IBMX, 3-isobutyl-1-methylxanthine], the chloride efflux ([2]; CF-T43 cells) is listed as “not provide an increase in efflux rate”, the “activation of a chloride conductance” value [3] is listed as “unable to activate a chloride conductance” and the “increase in chloride efflux rate” value [4] is listed as “Only the inhibitors specific for type III phosphodiesterases produced detectable increases”. The “activation of ΔF508 CFTR” value [5] was “could be activated”.

For `Nc1ncnc2c1ncn2[C@@H]1O[C@@H]2CO[P@@](O)(=S)O[C@H]2[C@H]1O` [Rp-cAMPS], the “effect of added agent on chloride efflux stimulated by isoproterenol and milrinone” value ([2]; CF-T43 cells) was “abolished the increase in chloride efflux”.

With `Nc1ncnc2c1ncn2[C@@H]1O[C@@H]2COP(O)(=S)O[C@H]2[C@H]1O` (stereo partly shown) [Sp-cAMPS, Sp-adenosine 3':5'-cyclic phosphorothioate] the “effect of added agent on chloride efflux stimulated by isoproterenol and milrinone” value ([2]; CF-T43 cells) was “enhanced” and the chloride efflux ([2]; CF-T43 cells) was “no effect on chloride efflux”.

With `Nc1cc(-c2ccncc2)c[nH]c1=O` [amrinone] the “increase in chloride efflux rate” value [4] was “greatest increase in chloride efflux rate” and the “increase in cellular cAMP over baseline” value ([6]; 15 minutes, CF-T43 cells) was “same as milrinone”.

In the case of `C=C[C@@]1(C)CC(=O)[C@]2(O)[C@@]3(C)[C@@H](O)CCC(C)(C)[C@@H]3[C@H](O)[C@H](OC(C)=O)[C@@]2(C)O1` [forskolin], the “activation of chloride efflux” value (normal CFTR in 293 cells) was “sufficient to activate”.

For `COc1ccc(Cl)cc1C(=O)NCCc1ccc(S(=O)(=O)NC(=O)NC2CCCCC2)cc1` [glibenclamide], the “effect on efflux elicited by ionomycin” value [2, 7] was “little effect” and the “inhibition of β-adrenergic agonist/milrinone-stimulated efflux” value [2, 7] was “completely inhibited”.

With `C[C@H](CCC(=O)O)C[C@H](C)C[C@H](C)C(=O)/C=C(\O)[C@H](C)C[C@H](C)C/C=C/[C@@H](C)[C@@H](O)[C@@H](C)[C@@H](O)C[C@@H]1CC[C@@](C)([C@H]2CC[C@@](C)([C@@H](C)O)O2)O1` [ionomycin] the “chloride efflux response relative to the isoproterenol/milrinone response” value ([2]; CF-T43 cells) was “greater than the isoproterenol/milrinone response”, the “chloride efflux response in the presence of BAPTA-AM” value ([2]; CF-T43 cells, BAPTA-AM added) was “eliminated” and the “chloride efflux response in the presence of BAPTA-AM” value ([1]; primary CF nasal polyp cells incubated in BAPTA-AM) was “eliminated”.

For `CC(C)NCC(O)c1ccc(O)c(O)c1` (stereo not shown) [isoproterenol], the “chloride efflux rate increase (chloride transport) in the CF cells” value (from here on “chloride efflux rate increase”) [2] was “neither agent alone elicited a rate increase”, the chloride efflux ([2]; CF-T43 cells) was “no effect on chloride efflux” and the “chloride efflux rate increase” value [1] was “neither agent alone elicited a rate increase”.

For `Cc1[nH]c(=O)c(C#N)cc1-c1ccncc1` [milrinone], the “chloride efflux rate increase” value [2] was “neither agent alone elicited a rate increase”, the “increase in chloride efflux rate” value [4] was “greatest increase in chloride efflux rate” and the “reversal potential of current” value (16HBE cells; all concentrations of milrinone) was 0 mV. The “current when chloride was replaced by gluconate” value (16HBE cells; chloride replaced by gluconate) was “reduction of current”, the “dose dependence of effect on whole-cell current” value (16HBE cells; varying concentrations) was “dose-dependent” and the current/voltage relationship (16HBE cells; varying concentrations of milrinone, clamp -150 mV to +50 mV) was “linear”. For the same molecule, the “chloride efflux rate increase” value [1] was “neither agent alone elicited a rate increase” and the “cAMP increase compared with isoproterenol alone” value [6] was “not significantly above that of isoproterenol alone”.

In the case of `COc1ccc(C2CNC(=O)C2)cc1OC1CCCC1` (stereo not shown) [rolipram], the “increase in chloride efflux rate” value [4] was “Only the inhibitors specific for type III phosphodiesterases produced detectable increases”.
